Values of other authors in patent US20180338945A1, “SKIN ADHESIVES, ANTIMICROBIAL COMPOSITIONS, ARTICLES, AND METHODS FOR THE USE THEREOF” (DERMALINK TECHNOLOGIES, INC., priority 2015, published 2018).

Key:
A. brasiliensis = conditions: pure LAE
E. coli = conditions: pure LAE

Compound: CCCCCCCCCCCC(=O)N[C@@H](CCCNC(=N)N)C(=O)OCC [LAE, N^α-lauroyl-arginine ethyl ester]
- minimum inhibitory concentration (MIC) (A. brasiliensis): 32 micrograms per mL
- minimum inhibitory concentration (MIC) (E. coli): 16 micrograms per mL
